Laboratory results taken from ChEMBL document CHEMBL1133917, “Synthesis and pharmacology of modified amidine isoxazoline glycoprotein IIb/IIIa receptor antagonists” (Bioorg Med Chem Lett, 2001).
pIC50: −log10 of the molar value.

Columns and labels:
Assay type in all cases: functional
Canis familiaris [1] = assay: Percent inhibition of ex vivo platelet aggregation of rich plasma at a dose of 0.025 mg/kg, iv, in canine model at 5 hrs; settings: Canis lupus familiaris
Homo sapiens = organism: Homo sapiens; assay: Concentration required for maximal in vitro inhibition of aggregation of human platelet rich plasma (hPRP)
Canis familiaris [2] = assay: Percent inhibition of aggregation of platelet rich plasma at a dose of 0.025 mg/kg, iv, in canine model after 30 min; settings: Canis lupus familiaris, 0.5 h
Canis familiaris [3] = assay: Percent inhibition of aggregation of platelet rich plasma at a dose of 0.025 mg/kg, iv, in canine model at 5 hrs; settings: Canis lupus familiaris
Canis familiaris [4] = assay: Percent inhibition of aggregation of platelet rich plasma at a dose of 0.025 mg/kg, iv, in canine model at 24 hr; settings: Canis lupus familiaris

SMILES: CCNC(=N)c1ccc(C2=NO[C@@H](CC(=O)NC[C@H](NS(=O)(=O)c3ccccc3C)C(=O)O)C2)cc1
- inhibition in vivo at 0.025 mg/kg (Canis familiaris [1]): 40%
- pIC50 (Homo sapiens): 7.37

SMILES: Cc1noc(C)c1S(=O)(=O)N[C@@H](CNC(=O)C[C@H]1CC(c2ccc(C(=N)NCc3cccc(F)c3)cc2)=NO1)C(=O)O
- pIC50 (Homo sapiens): 7.26

SMILES: N/C(=N/Cc1ccccc1)c1ccc(C2=NOC(CC(=O)NCCC(=O)O)C2)cc1 (centres undefined)
- pIC50 (Homo sapiens): 6.70

SMILES: CCCCOC(=O)N[C@@H](CNC(=O)C[C@H]1CC(c2ccc(C(=N)NCC)cc2)=NO1)C(=O)O
- pIC50 (Homo sapiens): 7.09

SMILES: CCCCCNC(=N)c1ccc(C2=NOC(CC(=O)NCCC(=O)O)C2)cc1 (centres undefined)
- pIC50 (Homo sapiens): 6.52

SMILES: CCCCNC(=N)c1ccc(C2=NO[C@@H](CC(=O)NC[C@H](NS(=O)(=O)c3ccccc3C)C(=O)O)C2)cc1
- pIC50 (Homo sapiens): 7.80

SMILES: COc1ccccc1CNC(=N)c1ccc(C2=NOC(CC(=O)NCCC(=O)O)C2)cc1 (centres undefined)
- pIC50 (Homo sapiens): 7.49

SMILES: N/C(=N/Cc1ccccc1)c1ccc(C2=NO[C@@H](CC(=O)NCCC(=O)O)C2)cc1
- pIC50 (Homo sapiens): 7.06

SMILES: CCNC(=N)c1ccc(C2=NOC(CC(=O)NCCC(=O)O)C2)cc1 (centres undefined)
- inhibition in vivo at 0.025 mg/kg (Canis familiaris [2]): 70%
- inhibition in vivo at 0.025 mg/kg (Canis familiaris [3]): 20%

SMILES: COc1ccccc1CNC(=N)c1ccc(C2=NO[C@@H](CC(=O)NC[C@H](NS(=O)(=O)c3c(C)noc3C)C(=O)O)C2)cc1
- pIC50 (Homo sapiens): 7.26

SMILES: CCNC(=N)c1ccc(C2=NO[C@@H](CC(=O)NC[C@H](NS(=O)(=O)c3cccc(C)c3)C(=O)O)C2)cc1
- pIC50 (Homo sapiens): 7.29

SMILES: CCCCNC(=N)c1ccc(C2=NO[C@@H](CC(=O)NC[C@H](NC(=O)OCCCC)C(=O)O)C2)cc1
- pIC50 (Homo sapiens): 7.21

SMILES: N=C(N)c1ccc(C2=NOC(CC(=O)NCCC(=O)O)C2)cc1 (centres undefined)
- pIC50 (Homo sapiens): 6.62

SMILES: COc1ccccc1CNC(=N)c1ccc(C2=NO[C@@H](CC(=O)NC[C@H](NS(=O)(=O)c3ccccc3C)C(=O)O)C2)cc1
- inhibition in vivo at 0.025 mg/kg (Canis familiaris [4]): 80%
- pIC50 (Homo sapiens): 7.40

SMILES: Cc1ccccc1S(=O)(=O)N[C@@H](CNC(=O)C[C@H]1CC(c2ccc(C(=N)N)cc2)=NO1)C(=O)O
- pIC50 (Homo sapiens): 7.27

SMILES: Cc1cccc(S(=O)(=O)N[C@@H](CNC(=O)C[C@H]2CC(c3ccc(C(=N)N)cc3)=NO2)C(=O)O)c1
- pIC50 (Homo sapiens): 7.30

SMILES: CCCNC(=N)c1ccc(C2=NOC(CC(=O)NCCC(=O)O)C2)cc1 (centres undefined)
- pIC50 (Homo sapiens): 6.92

SMILES: CC(C)CCNC(=N)c1ccc(C2=NOC(CC(=O)NCCC(=O)O)C2)cc1 (centres undefined)
- pIC50 (Homo sapiens): 5.89

SMILES: N/C(=N/Cc1cccc(F)c1)c1ccc(C2=NOC(CC(=O)NCCC(=O)O)C2)cc1 (centres undefined)
- pIC50 (Homo sapiens): 7.92

SMILES: CCCCNC(=N)c1ccc(C2=NOC(CC(=O)NCCC(=O)O)C2)cc1 (centres undefined)
- pIC50 (Homo sapiens): 7.70

SMILES: N=C(N)c1ccc(C2=NO[C@@H](CC(=O)NCCC(=O)O)C2)cc1
- pIC50 (Homo sapiens): 7.22
